Here are results for 39 molecules from patent US20250197375A1, “PYRIMIDINES AND METHODS OF THEIR USE” (Kineta, Inc., priority 2021, published 2025).

Structures are written as SMILES.

The target in this experiment is PIKfyve (Homo sapiens (Human), UniProt Q9Y2I7). In words: PIKfyve EEA1 Assay (endosomal vesicle enlargement, high content imaging in U2OS cells). The settings on record: 3 hours of treatment, activity relative to maximal APY0201 activity. Type of experiment: cell-based. As for the experimental part: PIKfyve EEA1 Assay. Genetic or pharmacological disruption of PIKfyve activity results in enlargement of endosomal vesicles. This enlargement was utilized as a surrogate readout of PIKFyve inhibition for routine triage of PIKfyve inhibitors. U2OS cells grown in 96-well assay plates were treated with compound diluted in DMEM media containing 10% fetal bovine serum. After 3 hours of treatment, cells were fixed with paraformaldehyde, permeabilized with 0.2% Triton-X in phosphate buffered saline and stained against EEA1. During the secondary antibody staining, cells were also stained with CellMask™ Deep Red and Hoechst to detect cytoplasms and nuclei respectively. Endosomal structures were visualized using a high content imager at 40× magnification. Images were analyzed using a linear classifier algorithm integrating EEA1 spot size, intensity and texture trained on images of cells treated with the potent reference compound APY0201. Compound activity was calculated by subtracting the DMSO signal and calculating percentage activity relative to maximal APY0201 activity. IC50 values were then calculated from concentration versus percent inhibition data by logistic regression.
Sequence of PIKfyve (Q9Y2I7 whole entry): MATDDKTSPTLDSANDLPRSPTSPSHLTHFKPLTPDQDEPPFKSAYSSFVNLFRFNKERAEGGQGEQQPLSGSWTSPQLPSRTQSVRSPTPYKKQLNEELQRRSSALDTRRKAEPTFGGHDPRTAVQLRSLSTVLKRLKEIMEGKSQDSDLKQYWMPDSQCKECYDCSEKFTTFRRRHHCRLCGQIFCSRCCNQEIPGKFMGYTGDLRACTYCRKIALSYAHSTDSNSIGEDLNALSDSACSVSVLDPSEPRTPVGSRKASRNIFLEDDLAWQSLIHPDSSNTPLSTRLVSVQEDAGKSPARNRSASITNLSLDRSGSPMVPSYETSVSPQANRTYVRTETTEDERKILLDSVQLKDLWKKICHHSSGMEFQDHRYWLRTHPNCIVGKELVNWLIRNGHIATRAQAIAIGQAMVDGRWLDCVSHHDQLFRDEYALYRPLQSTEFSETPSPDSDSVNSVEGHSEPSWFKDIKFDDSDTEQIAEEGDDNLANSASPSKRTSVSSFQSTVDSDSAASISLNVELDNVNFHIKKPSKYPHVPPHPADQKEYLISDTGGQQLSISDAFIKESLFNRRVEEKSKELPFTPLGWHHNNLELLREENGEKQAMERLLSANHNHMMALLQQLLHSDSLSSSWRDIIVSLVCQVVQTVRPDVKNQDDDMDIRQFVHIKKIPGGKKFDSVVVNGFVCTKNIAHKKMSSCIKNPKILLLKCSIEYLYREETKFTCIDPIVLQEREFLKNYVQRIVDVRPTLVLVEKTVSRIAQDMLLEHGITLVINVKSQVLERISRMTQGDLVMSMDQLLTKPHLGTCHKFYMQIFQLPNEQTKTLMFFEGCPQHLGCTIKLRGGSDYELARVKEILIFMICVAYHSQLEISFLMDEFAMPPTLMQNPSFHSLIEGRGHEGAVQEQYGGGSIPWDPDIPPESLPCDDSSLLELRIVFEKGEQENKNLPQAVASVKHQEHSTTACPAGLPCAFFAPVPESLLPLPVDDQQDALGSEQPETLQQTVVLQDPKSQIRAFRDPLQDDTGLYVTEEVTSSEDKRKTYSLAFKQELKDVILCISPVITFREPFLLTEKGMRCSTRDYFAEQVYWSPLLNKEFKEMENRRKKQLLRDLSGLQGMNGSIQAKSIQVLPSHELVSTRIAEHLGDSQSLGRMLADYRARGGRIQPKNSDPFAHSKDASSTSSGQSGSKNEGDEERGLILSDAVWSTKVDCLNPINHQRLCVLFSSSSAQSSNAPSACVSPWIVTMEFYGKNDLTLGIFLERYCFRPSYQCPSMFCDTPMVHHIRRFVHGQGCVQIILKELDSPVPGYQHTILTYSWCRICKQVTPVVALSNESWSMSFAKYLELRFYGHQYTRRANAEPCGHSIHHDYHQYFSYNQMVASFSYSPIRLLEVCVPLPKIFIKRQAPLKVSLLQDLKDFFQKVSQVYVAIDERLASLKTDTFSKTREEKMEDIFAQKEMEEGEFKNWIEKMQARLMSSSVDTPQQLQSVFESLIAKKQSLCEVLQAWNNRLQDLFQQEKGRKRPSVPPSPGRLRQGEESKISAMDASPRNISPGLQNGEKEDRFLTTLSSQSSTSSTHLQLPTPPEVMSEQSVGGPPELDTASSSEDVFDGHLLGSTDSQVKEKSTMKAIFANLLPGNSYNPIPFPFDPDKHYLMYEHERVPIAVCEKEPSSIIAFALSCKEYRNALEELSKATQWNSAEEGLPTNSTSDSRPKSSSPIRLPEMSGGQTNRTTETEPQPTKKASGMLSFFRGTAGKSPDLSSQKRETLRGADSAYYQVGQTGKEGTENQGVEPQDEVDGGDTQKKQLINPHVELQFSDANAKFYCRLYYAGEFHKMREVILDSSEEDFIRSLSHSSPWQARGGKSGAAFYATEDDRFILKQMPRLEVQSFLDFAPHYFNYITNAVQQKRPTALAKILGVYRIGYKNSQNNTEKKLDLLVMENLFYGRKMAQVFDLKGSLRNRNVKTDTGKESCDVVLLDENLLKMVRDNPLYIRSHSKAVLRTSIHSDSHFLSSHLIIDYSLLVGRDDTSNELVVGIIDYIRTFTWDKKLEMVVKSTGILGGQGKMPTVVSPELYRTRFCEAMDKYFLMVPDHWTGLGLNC
The IC50 is the concentration that inhibits the measured activity by half. Molecule `COc1c(Nc2cccnc2)nc(N2CCOCC2)nc1-c1cccc(-c2cccnn2)c1` [Compound 21] registered an IC50 of 1 to 10 µM. Turning to `Clc1c(Nc2ccncc2)nc(N2CCOCC2)nc1-c1cccc(-n2cccn2)c1` [Compound 50, 6-(3-(1H-pyrazol-1-yl)phenyl)-5-chloro-2-morpholino-N-(pyridin-4-yl)pyrimidin-4-amine], the IC50 is 0.1 to 1 µM.

Take `COc1c(N2CCOCC2)nc(-c2cccc(-n3cccn3)c2)nc1N1CCN(C)C(=O)C1` [Compound 36]: the IC50 is 1 to 10 µM. Take `COc1c(OCCc2ccccn2)nc(-c2cccc(-c3ccn(C)n3)c2)nc1N1CCOCC1` [Compound 4]: the half-maximal inhibitory concentration (IC50) was in the range of 1 to 10 µM. Consider `COc1cc(-c2nc(N3CCOCC3)nc(Nc3cccnc3)c2OC)cnc1OC` [Compound 18, 6-(5,6-dimethoxypyridin-3-yl)-5-methoxy-2-morpholino-N-(pyridin-3-yl)pyrimidin-4-amine], for which the 50% inhibitory concentration (IC50) was 1 to 10 µM.

Consider `Cn1ccc(-c2cccc(-c3nc(N4CCOCC4)nc(Nc4cccnc4)c3[S+](C)[O-])c2)n1` (stereo not drawn) [Compound 59], for which the IC50 fell in the range of 1 to 10 µM. As for `COc1c(-c2cccc(-c3ccn(C)n3)c2)nc(N2CCOCC2)nc1N1CCN(C)C(=O)C1` [Compound 60, 4-(5-methoxy-6-(3-(1-methyl-1H-pyrazol-3-yl)phenyl)-2-morpholinopyrimidin-4-yl)-1-methylpiperazin-2-one], the IC50 is 1 to 10 µM. For the molecule `Cn1ccc(-c2cccc(-c3nc(N4CCOCC4)nc(Nc4cc[n+](C)cc4)c3-c3ncco3)c2)n1` [Compound 73], the IC50 was 1 to 10 µM. `COc1c(-c2cccc(-n3cccn3)c2)nc(N2CCN(C)C(=O)C2)nc1N1CCOCC1` [Compound 37, 4-[5-methoxy-4-morpholino-6-(3-pyrazol-1-ylphenyl)pyrimidin-2-yl]-1-methyl-piperazin-2-one] returned an IC50 of 1 to 10 µM.

`COc1c(Nc2ccncc2)nc(N2CCOCC2)nc1-c1ccnc(-c2ccn(C)n2)n1` [Compound 56, 5-methoxy-2′-(I-methyl-1H-pyrazol-3-yl)-2-morpholino-N-(pyridin-4-yl)-4,4′-bipyrimidin-4-amine] showed an IC50 of 0.1 to 1 µM.

In the case of `COc1c(NCc2cccnc2)nc(-c2cccc(-c3ccn(C)n3)c2)nc1-c1ccncc1` [Compound 63, 5-methoxy-2-(3-(1-methyl-1H-pyrazol-3-yl)phenyl)-N-(pyridin-3-ylmethyl)-6-(pyridin-4-yl)pyrimidin-4-amine], the IC50 lay within 1 to 10 µM. The molecule `COc1c(-c2cccc(-n3cccn3)c2)nc(N2CCOCC2)nc1-c1nc(-c2ccccc2)c[nH]1` [Compound 61, 4-(4-(3-(1H-pyrazol-1-yl)phenyl)-6-methoxy-6-(4-phenyl-1H-imidazol-2-yl)pyrimidin-2-yl)morpholine] gave an IC50 of 1 to 10 µM. `COc1c(-c2cccc(-c3ccn(C)n3)c2)nc(N2CCOCC2)nc1-c1ccc2ncccc2c1` [Compound 58, 4-(5-methoxy-4-(3-(1-methyl-1H-pyrazol-3-yl)phenyl)-6-(quinolin-6-yl)pyrimidin-2-yl)morpholine] showed a half-maximal inhibitory concentration (IC50) of 0.1 to 1 µM.

Consider `COc1c(Nc2cccnc2)nc(N2CCOCC2)nc1-c1cccc(C#N)c1` [Compound 23, 3-(5-methoxy-2-morpholino-6-(pyridin-3-ylamino)pyrimidin-4-yl)benzonitrile], for which the IC50 fell in the range of 1 to 10 µM. `COc1ccc(-c2nc(N3CCOCC3)nc(Nc3ccncc3)c2OC)nc1OC` [Compound 51, 6-(5,6-dimethoxypyridin-2-yl)-5-methoxy-2-morpholino-N-(pyridin-4-yl)pyrimidin-4-amine] registered an IC50 of 0.1 to 1 µM. As for `COc1c(Nc2ccncc2)nc(OC[C@H]2COCCN2)nc1-c1cccc(-c2ccn(C)n2)c1` [Compound 42, (R)-5-methoxy-6-(3-(1-methyl-1H-pyrazol-3-yl)phenyl)-2-(morpholin-3-ylmethoxy)-N-(pyridin-4-yl)pyrimidin-4-amine], the IC50 is 1 to 10 µM. `COc1c(Nc2ccncc2)nc(N2CCOCC2)nc1-c1cccc(-c2ncco2)c1` [Compound 54, 5-methoxy-2-morpholino-6-(3-(oxazol-2-yl)phenyl)-N-(pyridin-4-yl)pyrimidin-4-amine] came in with an IC50 of 0.01 to 0.1 µM.

`COc1c(Nc2cccnc2)nc(N2CCOCC2)nc1-c1cccc(N2CCN(C)C(=O)C2)c1` [Compound 27, 4-(3-(5-methoxy-2-morpholino-6-(pyridin-3-ylamino)pyrimidin-4-yl)phenyl)-1-methylpiperazin-2-one]: the IC50 lay within 1 to 10 µM.

For the molecule `COc1c(Nc2ccncc2)nc(N2CCOC[C@H]2CO)nc1-c1cccc(-c2ccn(C)n2)c1` [Compound 43], the IC50 was 1 to 10 µM. Molecule `COc1c(Nc2ccncc2)nc(N2CCOCC2)nc1-c1cccc(N2CCC(O)CC2)c1` [Compound 48, 1-(3-(5-methoxy-2-morpholino-6-(pyridin-4-ylamino)pyrimidin-4-yl)phenyl)piperidin-4-ol] came in with an IC50 of 0.1 to 1 µM.

Turning to `CN(C)C(=O)c1c(Nc2ccncc2)nc(N2CCOCC2)nc1-c1cccc(-c2ccn(C)n2)c1` [Compound 66], the concentration for half-maximal inhibition (IC50) is 0.1 to 1 µM.

The molecule `COc1c(-c2cccc(-c3ccn(C)n3)c2)nc(OCCc2ccccn2)nc1N1CCOCC1` [Compound 5, 4-(5-methoxy-6-(3-(1-methyl-H-pyrazol-3-yl)phenyl)-2-(2-(pyridin-2-yl)ethoxy)pyrimidin-4-yl)morpholine] returned an IC50 of 1 to 10 µM.

In turn, `COc1c(Nc2ccncc2)nc(N2CCOCC2)nc1-c1cccc(-n2ccc(C)n2)c1` [Compound 9] yielded an IC50 of 0.01 to 0.1 µM. `CN(C)C(=O)c1c(Nc2ccncc2)nc(N2CCOCC2)nc1-c1cccc(C#N)c1` [Compound 67]: the IC50 was in the range of 1 to 10 µM. The molecule `COc1c(NCc2cccnn2)nc(N2CCOCC2)nc1-c1cccc(-c2ccn(C)n2)c1` [Compound 31, 5-methoxy-6-(3-(1-methyl-1H-pyrazol-3-yl)phenyl)-2-morpholino-N-(pyridazin-3-ylmethyl)pyrimidin-4-amine] showed an IC50 of 1 to 10 µM.

`COc1c(Nc2cccnc2)nc(N2CCOCC2)nc1-c1cccc(N2CCOCC2=O)c1` [Compound 28, 4-(3-(5-methoxy-2-morpholino-6-(pyridin-3-ylamino)pyrimidin-4-yl)phenyl)morpholin-3-one] had an IC50 of 1 to 10 µM. The result for `COc1c(Nc2cccnc2)nc(N2CCOCC2)nc1-c1cccc(N2CCC(O)CC2)c1` [Compound 55, 1-(3-(5-methoxy-2-morpholino-6-(pyridin-3-ylamino)pyrimidin-4-yl)phenyl)piperidin-4-ol] reads 1 to 10 µM; that for `COc1ccc(-c2nc(N3CCOCC3)nc(Nc3cccnc3)c2OC)cc1OC` [Compound 22], 1 to 10 µM; that for `COc1c(Nc2cccnc2)nc(N2CCOCC2)nc1-c1cccc(N2CCC(O)C2)c1` (stereo not drawn) [Compound 26, 1-(3-(5-methoxy-2-morpholino-6-(pyridin-3-ylamino)pyrimidin-4-yl)phenyl)pyrrolidin-3-ol], 1 to 10 µM.

Turning to `COc1c(Nc2ccncc2)nc(N2CCOCC2)nc1-c1cccc(-c2ccn(C)n2)c1` [Compound 3, 5-methoxy-6-(3-(1-methyl-1H-pyrazol-3-yl)phenyl)-2-morpholino-N-(pyridin-4-yl)pyrimidin-4-amine], the concentration for half-maximal inhibition (IC50) was 0.01 to 0.1 µM.

For `Cn1ccc(-c2ccc3c(c2)c2nc(N4CCOCC4)nc(Nc4ccncc4)c2c(=O)n3C)n1` [Compound 71, 6-methyl-9-(1-methylpyrazol-3-yl)-2-morpholino-4-(4-pyridylamino)pyrimido[5,4-c]quinolin-one], the IC50 was 0.1 to 1 µM. Molecule `O=c1[nH]c2ccc(-n3cccn3)cc2c2nc(N3CCOCC3)nc(Nc3ccncc3)c12` [Compound 64, 2-morpholino-9-pyrazol-1-yl-4-(4-pyridylamino)-6H-pyrimido[5,4-c]quinolin-5-one] displayed an IC50 of 1 to 10 µM.

Molecule `COc1c(Nc2cccnc2)nc(N2CCOCC2)nc1-c1ccnc(-c2ccn(C)n2)c1` [Compound 25, 5-methoxy-6-(2-(1-methyl-1H-pyrazol-3-yl)pyridin-4-yl)-2-morpholino-N-(pyridin-3-yl)pyrimidin-4-amine] displayed a half-maximal inhibitory concentration (IC50) of 0.1 to 1 µM. Take `CN1CCCC(Oc2nc(N3CCOCC3)nc3c2OCc2cc(-c4ccccc4)nn2-3)C1` (stereo not drawn) [Compound 35, 4-((1-methylpiperidin-3-yl)oxy)-2-morpholino-8-phenyl-6H-pyrazolo[1,5-d]pyrimido[5,4-b][1,4]oxazine]: the IC50 is 1 to 10 µM. `Cn1ccc(-c2ccc3[nH]c(=O)c4c(Nc5ccncc5)nc(N5CCOCC5)nc4c3c2)n1` [Compound 72, 9-(1-methylpyrazol-3-yl)-2-morpholino-4-(4-pyridylamino)-6H-pyrimido[5,4-c]quinolin-one]: the IC50 was in the range of 0.01 to 0.1 µM. In turn, `COc1c(Nc2cccnc2)nc(N2CCOCC2)nc1-c1cccc(C(=O)N(C)C)c1` [Compound 24] registered an IC50 of 1 to 10 µM. For the molecule `COc1c(Nc2ccncc2)nc(-c2ccncc2)nc1-c1cccc(-c2ccn(C)n2)c1` [Compound 53, 5-methoxy-6-(3-(1-methyl-1H-pyrazol-3-yl)phenyl)-N, 2-di(pyridin-4-yl)pyrimidin-4-amine], the IC50 was in the range of 0.01 to 0.1 µM. `COc1c(Nc2cccnc2)nc(-c2ccncc2)nc1-c1cccc(-c2ccn(C)n2)c1` [Compound 34, 5-methoxy-6-(3-(1-methyl-H-pyrazol-3-yl)phenyl)-N-(pyridin-3-yl)-2-(pyridin-4-yl)pyrimidin-4-amine] yielded an IC50 of 0.01 to 0.1 µM. The result for `COc1c(Nc2cccnc2)nc(N2CCOCC2)nc1-c1cccc(-c2ccn(C)n2)c1` [Compound 20, 5-methoxy-6-(3-(1-methyl-1H-pyrazol-3-yl)phenyl)-2-morpholino-N-(pyridin-3-yl)pyrimidin-4-amine] reads 0.1 to 1 µM.
